# Assay results as given in US11076595B2, “1-(n,n-disubstituted carbamoyl) 4-(substituted sulfonyl)triazolin-5-one derivative, 4-(n,n-disubstituted carbamoyl) 1-(substituted sulfonyl)triazolin-5-one derivative, and herbicide containing said derivative as active ingredient” (HOKKO CHEMICAL INDUSTRY CO., LTD., priority 2017, dated 2021).
# Tests used:
# Assay type in all cases: in vivo
# [1] = test system: Scirpus juncoides; experiment: Test Example 11: herbicidal effect test by soil treatment in paddy field; details: 120 g/10a active ingredient, 14 days after treatment
# Procedure, shortened: (§1)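 Pre-emergence paddy test, 120 g a.i./10 are, emulsifiable concentrate diluted in water and added dropwise to ~3 cm flood water right after sowing (30 seeds/species, 0–1 cm depth, fertilized puddled soil). Greenhouse; 2 replicates; dry-weight suppression (%) vs untreated, day 14.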
# [2] = test system: Lindernia pyxidaria; experiment: as above; details: 120 g/10a active ingredient, 14 days after treatment
# Procedure, shortened: as §1
# [3] = test system: Echinochloa crus-galli; experiment: as above; details: 120 g/10a active ingredient, 14 days after treatment
# Procedure, shortened: as §1
# [4] = test system: Monochoria vaginalis; experiment: as above; details: 120 g/10a active ingredient, 14 days after treatment
# Procedure, shortened: as §1
# [5] = test system: Scirpus juncoides; experiment: Test Example 12: herbicidal effect test by treatment during growing period in paddy field; details: 120 g/10a; treatment seven days after sowing in flooded paddy pot; assessed 14 days after treatment
# Procedure, shortened: (§2)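 Paddy soil + NPK 17:17:17, puddled; 30 seeds/species sown 0–1 cm; flooded ~3 cm, greenhouse. Day 7 post-sowing: EC diluted in water, applied dropwise into water, 120 g a.i./10 are. Day 14 post-treatment: dry weight vs untreated → % suppression; n=2.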
# [6] = test system: Lindernia pyxidaria; experiment: as above; details: 120 g/10a; treatment seven days after sowing in flooded paddy pot; assessed 14 days after treatment
# Procedure, shortened: as §2
# [7] = test system: Echinochloa crus-galli; experiment: as above; details: 120 g/10a; treatment seven days after sowing in flooded paddy pot; assessed 14 days after treatment
# Procedure, shortened: as §2
# [8] = test system: Monochoria vaginalis; experiment: as above; details: 120 g/10a; treatment seven days after sowing in flooded paddy pot; assessed 14 days after treatment
# Procedure, shortened: as §2
Structure (SMILES),Weed suppression rate (%) Scirpus juncoides [1] [%],Weed suppression rate (%) Lindemia pyxidaria [2] [%],Weed suppression rate (%) Echinochloa crus-galli [3] [%],Weed suppression rate (%) Monochoria vaginalis [4] [%],Weed suppression rate (%) Scirpus juncoides [5] [%],Weed suppression rate (%) Lindemia pyxidaria [6] [%],Weed suppression rate (%) Echinochloa crus-galli [7] [%],Weed suppression rate (%) Monochoria vaginalis [8] [%]
CC(C)N(C(=O)n1cnn(S(=O)(=O)c2ccccc2F)c1=O)c1c(F)cccc1F [Compound 11-404],30,30,100,60,70,70,100,70
CC(C)N(C(=O)n1cnn(S(=O)(=O)N(C)C)c1=O)c1ccccc1F [Compound 11-1054],90,80,90,80,90,80,90,80
CC(C)N(C(=O)n1cnn(S(=O)(=O)c2ccc(F)cc2)c1=O)c1cccc(F)c1F [Compound 11-474],100,100,100,100,100,100,100,90
CC(C)N(C(=O)n1cnn(S(=O)(=O)c2cccs2)c1=O)c1c(F)c(F)cc(F)c1F [Compound 11-1027],100,100,100,90,100,80,100,90
CC(C)N(C(=O)n1cnn(S(=O)(=O)C(C)C)c1=O)c1ccc(Br)cc1Cl [Compound 11-70],100,100,100,90,100,70,100,90
Cc1cc(C)c(S(=O)(=O)n2ncn(C(=O)N(c3c(F)c(F)cc(F)c3F)C(C)C)c2=O)c(C)c1 [Compound 11-868],100,100,100,70,60,90,90,80
CC(C)N(C(=O)n1cnn(S(=O)(=O)N(C)C)c1=O)c1ccc(C(F)(F)F)cc1Cl [Compound 11-1084],90,80,90,80,90,80,90,80
CC(C)N(C(=O)n1cnn(S(=O)(=O)c2ccc(C(C)(C)C)cc2)c1=O)c1ccc(Cl)cc1Br [Compound 11-694],70,80,90,70,80,60,70,70
CC(C)N(C(=O)n1cnn(S(=O)(=O)c2ccc(Cl)cc2)c1=O)c1cccc(F)c1F [Compound 11-587],60,80,90,60,90,80,90,90
CC(C)N(C(=O)n1cnn(S(=O)(=O)c2cccc(F)c2)c1=O)c1ccc(F)c(F)c1F [Compound 11-441],100,90,100,60,100,60,100,80
CC(C)N(C(=O)n1cnn(S(=O)(=O)c2ccccc2Cl)c1=O)c1ccccc1F [Compound 11-502],90,80,90,80,90,80,90,80
CC(C)N(C(=O)n1cnn(S(=O)(=O)c2cccs2)c1=O)c1ccc(Cl)cc1Br [Compound 11-1034],100,90,100,70,70,70,90,70
CC(C)N(C(=O)n1cnn(S(=O)(=O)C(C)C)c1=O)c1cccc(F)c1 [Compound 11-50],90,80,90,80,90,80,90,80
Cc1ccc(N(C(=O)n2cnn(S(=O)(=O)c3ccc(C(C)(C)C)cc3)c2=O)C(C)C)c(F)c1 [Compound 11-696],90,80,90,80,90,80,90,80
COc1ccc(S(=O)(=O)n2ncn(C(=O)N(c3ccc(F)c(F)c3F)C(C)C)c2=O)cc1 [Compound 11-1153],60,100,100,90,90,70,100,100
Cc1ccc(S(=O)(=O)n2ncn(C(=O)N(C)c3ccc(F)cc3F)c2=O)cc1 [Compound 11-1131],100,100,100,70,80,70,100,90
